According to patent US6642238B2, “Oxazolidinone thioamides with piperazine amide substituents” (Pharmacia and Upjohn Company, priority 2000, dated 2003):
In brackets after ≈: the same amount, converted by molar mass.

Legend:
[1] = system: Enterococcus faecalis (EFAE 9217); test: MIC by agar dilution, EFAE 9217; type: cell-based; conditions: Minimum Inhibitory Concentration, strain EFAE 9217; for MIC: Enterococcus faecalis
Text: (§1) The oxazolidinone antibacterial agents of this invention have useful activity against a variety of organisms. The in vitro activity of compounds of this invention can be assessed by standard testing procedures such as the determination of minimum inhibitory concentration (MIC) by agar dilution as described in “Approved Standard. Methods for Dilution Antimicrobial Susceptibility Tests for Bacteria That Grow Aerobically”, 3rd. ed., published 1993 by the National Committee for Clinical Laboratory Standards, Villanova, Pa., USA. The activity of compounds of this invention against Staphylococcus aureus, Staphylococcus epidermidis, Streptococcus pneumoniae, Streptococcus pyogens, Enterococcus faecalis, Moraxella catarrhalis and H. influenzae is shown in Table 1.

[2] = system: Staphylococcus epidermidis (SEPI 30593); test: MIC by agar dilution, SEPI 30593; type: cell-based; conditions: Minimum Inhibitory Concentration, strain SEPI 30593; for MIC: Staphylococcus epidermidis
Text: as §1

[3] = system: Streptococcus pneumoniae (SPNE 9912); test: MIC by agar dilution, SPNE 9912; type: cell-based; conditions: Minimum Inhibitory Concentration, strain SPNE 9912; for MIC: Streptococcus pneumoniae
Text: as §1

[4] = system: Staphylococcus aureus (SAUR 9213); test: MIC by agar dilution, SAUR 9213; type: cell-based; conditions: Minimum Inhibitory Concentration, strain SAUR 9213; for MIC: Staphylococcus aureus
Text: as §1

[5] = system: Streptococcus pyogens (SPYO 152); test: MIC by agar dilution, SPYO 152; type: cell-based; conditions: Minimum Inhibitory Concentration, strain SPYO 152; for MIC: Streptococcus
Text: as §1

[6] = system: H. influenzae (HINF 30063); test: MIC by agar dilution, HINF 30063; type: cell-based; conditions: Minimum Inhibitory Concentration, strain HINF 30063; for MIC: Haemophilus influenzae
Text: as §1

[7] = system: Moraxella catarrhalis (MCAT 30607); test: MIC by agar dilution, MCAT 30607; type: cell-based; conditions: Minimum Inhibitory Concentration, strain MCAT 30607; for MIC: Moraxella catarrhalis
Text: as §1

[8] = system: Enterococcus faecalis (EFAE 12712); test: MIC by agar dilution, EFAE 12712; type: cell-based; conditions: Minimum Inhibitory Concentration, strain EFAE 12712; for MIC: Enterococcus faecalis
Text: as §1

Compound | MIC [1] | MIC [2] | MIC [3] | MIC [4] | melting point | MIC [5] | MIC [6] | MIC [7] | MIC [8] | EFAE 9217 MIC [1] | SEPI 30593 MIC [2] | SPNE 9912 MIC [3] | SAUR 9213 MIC [4] | SPYO 152 MIC [5] | HINF 30063 MIC [6] | MCAT 30607 MIC [7] | EFAE 12712 MIC [8]
CCC(=S)NC[C@H]1CN(c2ccc(N3CCN(C(=O)[C@@H](O)CO)CC3)c(F)c2)C(=O)O1 [EX 16, N-({(5S)-3-[3-fluoro-4-[4-((2S)-2,3-dihydroxypropanoyl)-1-piperazinyl]phenyl]-2-oxo-1,3-oxazolidin-5-yl}methyl)propanethioamide] | 0.5 µg/mL (≈ 1.1 µM) | 0.5 µg/mL (≈ 1.1 µM) | 0.5 µg/mL (≈ 1.1 µM) | 4 µg/mL (≈ 8.8 µM) | 142 °C (dec.) | 0.5 µg/mL (≈ 1.1 µM) | 8 µg/mL (≈ 17.6 µM) | 2 µg/mL (≈ 4.4 µM) | 1 µg/mL (≈ 2.2 µM) | – | – | – | – | – | – | – | –
CCC(=S)NC[C@H]1CN(c2ccc(N3CCN(C(=O)[C@H](O)c4ccccc4)CC3)c(F)c2)C(=O)O1 [EX 21, N-[((5S)-3-{3-fluoro-4-[4-((2R)-2-hydroxy-2-phenylacetyl)-1-piperazinyl]phenyl}-2-oxo-1,3-oxazolidin-5-yl)methyl]propanethioamide] | 2 µg/mL (≈ 4 µM) | 1 µg/mL (≈ 2 µM) | 1 µg/mL (≈ 2 µM) | 4 µg/mL (≈ 7.99 µM) | – | 2 µg/mL (≈ 4 µM) | 64 µg/mL (≈ 128 µM) | 4 µg/mL (≈ 7.99 µM) | 2 µg/mL (≈ 4 µM) | – | – | – | – | – | – | – | –
CCC(=S)NC[C@H]1CN(c2ccc(N3CCN(C(=O)[C@@H](OC(C)=O)c4ccccc4)CC3)c(F)c2)C(=O)O1 [EX 22, N-[((5S)-3-{3-fluoro-4-[4-((2S)-2-acetoxy-2-phenylacetyl)-1-piperazinyl]phenyl}-2-oxo-1,3-oxazolidin-5-yl)methyl]propanethioamide] | 4 µg/mL (≈ 7.37 µM) | 4 µg/mL (≈ 7.37 µM) | 2 µg/mL (≈ 3.69 µM) | 8 µg/mL (≈ 14.7 µM) | – | 4 µg/mL (≈ 7.37 µM) | > 64 µg/mL | 8 µg/mL (≈ 14.7 µM) | 4 µg/mL (≈ 7.37 µM) | – | – | – | – | – | – | – | –
CCC(=S)NC[C@H]1CN(c2ccc(N3CCN(C#N)CC3)c(F)c2)C(=O)O1 [EX 5, N-({(5S)-3-[4-(4-cyano-1-piperazinyl)-3-fluorophenyl]-2-oxo-1,3-oxazolidin-5-yl}methyl)propanethioamide] | 0.25 µg/mL (≈ 0.639 µM) | 0.25 µg/mL (≈ 0.639 µM) | 0.125 µg/mL (≈ 0.319 µM) | 0.25 µg/mL (≈ 0.639 µM) | 182 to 184 °C | 0.125 µg/mL (≈ 0.319 µM) | 2 µg/mL (≈ 5.11 µM) | 1 µg/mL (≈ 2.55 µM) | 0.25 µg/mL (≈ 0.639 µM) | – | – | – | – | – | – | – | –
CCC(=S)NC[C@H]1CN(c2ccc(N3CCN(C(=O)CCO)CC3)c(F)c2)C(=O)O1 [EX 13] | 1 µg/mL (≈ 2.28 µM) | 1 µg/mL (≈ 2.28 µM) | 0.5 µg/mL (≈ 1.14 µM) | 2 µg/mL (≈ 4.56 µM) | – | 0.5 µg/mL (≈ 1.14 µM) | 8 µg/mL (≈ 18.2 µM) | 2 µg/mL (≈ 4.56 µM) | 1 µg/mL (≈ 2.28 µM) | – | – | – | – | – | – | – | –
CCC(=S)NC[C@H]1CN(c2ccc(N3CCN(C(=O)[C@H](O)Cc4ccccc4)CC3)c(F)c2)C(=O)O1 [EX 20, N-[((5S)-3-{3-fluoro-4-[4-((2R)-2-hydroxy-3-phenylpropanoyl)-1-piperazinyl]phenyl}-2-oxo-1,3-oxazolidin-5-yl)methyl]propanethioamide] | 1 µg/mL (≈ 1.94 µM) | 1 µg/mL (≈ 1.94 µM) | < 0.5 µg/mL | 1 µg/mL (≈ 1.94 µM) | 128 to 130 °C (dec.) | 1 µg/mL (≈ 1.94 µM) | 64 µg/mL (≈ 124 µM) | 4 µg/mL (≈ 7.77 µM) | 1 µg/mL (≈ 1.94 µM) | – | – | – | – | – | – | – | –
CCC(=S)NC[C@H]1CN(c2ccc(N3CCN(C(=O)[C@@H](O)Cc4ccccc4)CC3)c(F)c2)C(=O)O1 [EX 19, N-[((5S)-3-{3-fluoro-4-[4-((2S)-2-hydroxy-3-phenylpropanoyl)-1-piperazinyl]phenyl}-2-oxo-1,3-oxazolidin-5-yl)methyl]propanethioamide] | 2 µg/mL (≈ 3.89 µM) | 2 µg/mL (≈ 3.89 µM) | < 0.5 µg/mL | 2 µg/mL (≈ 3.89 µM) | 174 to 175 °C | 1 µg/mL (≈ 1.94 µM) | > 64 µg/mL | 8 µg/mL (≈ 15.5 µM) | 2 µg/mL (≈ 3.89 µM) | – | – | – | – | – | – | – | –
CCC(=S)NC[C@H]1CN(c2ccc(N3CCN(C(=O)C(CO)OC)CC3)c(F)c2)C(=O)O1 (stereo partly drawn) [EX 10, N-[((5S)-3-{3-fluoro-4-[4-((2S)-3-hydroxy-2-methyoxypropanoyl)-1-piperazinyl]phenyl}-2-oxo-1,3-oxazolidin-5-yl)methyl]propanethioamide] | 1 µg/mL (≈ 2.13 µM) | 2 µg/mL (≈ 4.27 µM) | 1 µg/mL (≈ 2.13 µM) | 4 µg/mL (≈ 8.54 µM) | – | 1 µg/mL (≈ 2.13 µM) | 16 µg/mL (≈ 34.1 µM) | 4 µg/mL (≈ 8.54 µM) | 2 µg/mL (≈ 4.27 µM) | – | – | – | – | – | – | – | –
CCC(=S)NC[C@H]1CN(c2ccc(N3CCN(C(=O)CS(C)(=O)=O)CC3)c(F)c2)C(=O)O1 [EX 3, N-{ [(5S)-3-(3-fluoro-4-{4-[2-(methylsulfonyl)acetyl]-1-5 piperazinyl}phenyl]-2-oxo-1,3-oxazolidin-5-yl]methyl}propanethioamide] | 0.5 µg/mL (≈ 1.03 µM) | 0.5 µg/mL (≈ 1.03 µM) | 0.25 µg/mL (≈ 0.514 µM) | 2 µg/mL (≈ 4.11 µM) | – | 0.5 µg/mL (≈ 1.03 µM) | 8 µg/mL (≈ 16.4 µM) | 2 µg/mL (≈ 4.11 µM) | 1 µg/mL (≈ 2.06 µM) | – | – | – | – | – | – | – | –
N{[(5S)-3-(3-fluoro-4-{4-[2-(methylsulfinyl)acetyl]-1-piperazinyl}phenyl)-2-oxo-1,3-oxazolidin-5-yl]methyl }propanethioamide [EX 1] | – | – | – | – | – | – | – | – | – | 1 µg/mL | 1 µg/mL | .05 µg/mL | 4 µg/mL | 2 µg/mL | 8 µg/mL | 8 µg/mL | 2 µg/mL
CCC(=S)NC[C@H]1CN(c2ccc(N3CCN(C(=O)COc4ccccc4)CC3)c(F)c2)C(=O)O1 [EX 15, N-[((5S)-3-{3-fluoro-4-[4-(2-phenoxyacetyl)-1-piperazinyl]phenyl}-2-oxo-1,3-oxazolidin-5-yl)methyl]propanethioamide] | 0.5 µg/mL (≈ 0.999 µM) | 0.5 µg/mL (≈ 0.999 µM) | 0.25 µg/mL (≈ 0.499 µM) | 2 µg/mL (≈ 4 µM) | 171 to 172 °C | 0.5 µg/mL (≈ 0.999 µM) | 32 µg/mL (≈ 63.9 µM) | 2 µg/mL (≈ 4 µM) | 1 µg/mL (≈ 2 µM) | – | – | – | – | – | – | – | –
CCC(=S)NC[C@H]1CN(c2ccc(N3CCN(C(=O)COC(=O)OCCOC)CC3)c(F)c2)C(=O)O1 [EX 7, N-({(5S)-3-(3-fuoro-4-{4-[2-[(2-methoxyethoxy)carbonyloxy]acetyl]-1-piperazinyl}phenyl)-2-oxo-1,3-oxazolidin-5-yl}methyl) propanethioamide] | 2 µg/mL (≈ 3.8 µM) | 1 µg/mL (≈ 1.9 µM) | 0.25 µg/mL (≈ 0.475 µM) | 2 µg/mL (≈ 3.8 µM) | 150 to 151 °C | 0.25 µg/mL (≈ 0.475 µM) | 4 µg/mL (≈ 7.6 µM) | 4 µg/mL (≈ 7.6 µM) | 2 µg/mL (≈ 3.8 µM) | – | – | – | – | – | – | – | –
CCC(=S)NC[C@H]1CN(c2ccc(N3CCN(C(=O)CSC)CC3)c(F)c2)C(=O)O1 [EX 2, N-{[(5S)-3-(3-fluoro-4-{4-[2-(methylsulfanyl)acetyl]-1-piperazinyl}phenyl)-2-oxo-1,3-oxazolidin-5-yl]methyl}propanethioamide] | 1 µg/mL (≈ 2.2 µM) | 1 µg/mL (≈ 2.2 µM) | < 0.5 µg/mL | 2 µg/mL (≈ 4.4 µM) | – | 1 µg/mL (≈ 2.2 µM) | > 64 µg/mL | 4 µg/mL (≈ 8.8 µM) | 1 µg/mL (≈ 2.2 µM) | – | – | – | – | – | – | – | –
CCC(=S)NC[C@H]1CN(c2ccc(N3CCN(C(=O)C4(O)CC4)CC3)c(F)c2)C(=O)O1 [EX 14, N-{[(5S)-3-(3-fluoro-4-{4-[(1-hydroxycyclopropyl)carbonyl]-1-piperazinyl}phenyl)-2-oxo-1,3-oxazolidin-5-yl]methyl}propanethioamide] | 1 µg/mL (≈ 2.22 µM) | 1 µg/mL (≈ 2.22 µM) | 0.5 µg/mL (≈ 1.11 µM) | 4 µg/mL (≈ 8.88 µM) | 185 to 186 °C (dec.) | 1 µg/mL (≈ 2.22 µM) | 32 µg/mL (≈ 71 µM) | 2 µg/mL (≈ 4.44 µM) | 2 µg/mL (≈ 4.44 µM) | – | – | – | – | – | – | – | –
CCC(=S)NC[C@H]1CN(c2ccc(N3CCN(C(=O)[C@H](COC)OC)CC3)c(F)c2)C(=O)O1 [EX 9, N-[((5S)-3-{3-fluoro-4-[4-((2S)-2,3-dimethyoxypropanoyl)-1-piperazinyl]phenyl}-2-oxo-1,3-oxazolidin-5-yl)methyl]propanethioamide] | – | – | – | – | – | – | – | – | – | 2 µg/mL | 2 µg/mL | 1 µg/mL | 4 µg/mL | 1 µg/mL | 32 µg/mL | 4 µg/mL | 4 µg/mL
CCC(=S)NC[C@H]1CN(c2ccc(N3CCN(C(=O)C(C)(CO)CO)CC3)c(F)c2)C(=O)O1 [EX 18, N-{[(5S)-3-(3-fluoro-4-{4-[3-hydroxy-2-(hydroxymethyl)-2-mnethylpropanoyl]-1-piperazinyl}phenyl)-2-oxo-1,3-oxazolidin-5-yl]methyl}propanethioamide] | – | – | – | – | – | – | – | – | – | 2 µg/mL | 1 µg/mL | 0.5 µg/mL | 4 µg/mL | 1 µg/mL | 32 µg/mL | 4 µg/mL | 2 µg/mL
